Test results taken from ChEMBL document CHEMBL4417633, “Inhibitory polypeptides specific to WNT inhibitors” (2017).
Where a SMILES comes first, the peptide text is derived from it.

Tests used:
[1] = target: T1, Dickkopf-related protein 1 (Homo sapiens, UniProt O94907); assay: Inhibition of biotin-labeled human recombinant DKK1 assessed as reduction in DKK1 interaction with LRP-6/Fc incubated overnight by chemiluminescence based Alpha-screen assay
T1 sequence (O94907 whole entry): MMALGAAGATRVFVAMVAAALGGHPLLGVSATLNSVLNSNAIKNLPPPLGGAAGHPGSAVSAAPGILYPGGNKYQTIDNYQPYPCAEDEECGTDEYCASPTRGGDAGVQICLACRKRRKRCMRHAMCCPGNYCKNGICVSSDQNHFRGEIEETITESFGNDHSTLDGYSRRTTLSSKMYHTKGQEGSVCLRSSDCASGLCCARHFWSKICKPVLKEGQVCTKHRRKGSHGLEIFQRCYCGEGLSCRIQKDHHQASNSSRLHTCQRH

[2] = target: T2, Dickkopf WNT-signaling pathway inhibitor 1 (Rattus norvegicus, UniProt A6I0Z0); assay: Inhibition of biotin-labeled rat recombinant DKK1 assessed as reduction in DKK1 interaction with LRP-6/Fc incubated overnight by chemiluminescence based Alpha-screen assay
T2 sequence (A6I0Z0 whole entry): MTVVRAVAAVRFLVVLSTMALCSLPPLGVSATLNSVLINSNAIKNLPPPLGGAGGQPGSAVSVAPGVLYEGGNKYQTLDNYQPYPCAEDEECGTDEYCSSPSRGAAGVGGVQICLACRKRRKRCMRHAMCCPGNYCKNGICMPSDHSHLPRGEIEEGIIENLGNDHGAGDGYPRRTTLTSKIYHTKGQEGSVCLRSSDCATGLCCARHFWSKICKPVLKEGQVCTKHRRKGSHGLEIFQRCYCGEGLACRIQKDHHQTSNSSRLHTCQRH

Row | SMILES | IC50 [1] [nM] | IC50 [2] [nM]
1 | CSCC[C@H](NC(=O)[C@@H]1CCCN1C(=O)[C@H](Cc1ccc(O)cc1)NC(=O)[C@H](CS)NC(=O)[C@H](Cc1cnc[nH]1)NC(=O)[C@H](CC(N)=O)NC(=O)[C@H](Cc1cnc[nH]1)NC(=O)[C@H](CCCCN)NC(=O)[C@H](CCCNC(=N)N)NC(=O)[C@H](CS)NC(=O)[C@H](CCCCN)NC(=O)[C@H](Cc1ccccc1)NC(=O)[C@H](Cc1ccc(O)cc1)NC(=O)[C@H](CO)NC(=O)[C@H](C)NC(=O)[C@@H]1CCCN1C(=O)[C@@H](N)CS)C(=O)N[C@@H](CCC(=O)O)C(=O)N[C@@H](Cc1c[nH]c2ccccc12)C(=O)N[C@@H](CCCNC(=N)N)C(=O)N[C@@H](CS)C(=O)N[C@@H](CC(=O)O)C(=O)NCC(=O)N[C@@H](Cc1ccccc1)C(=O)N[C@@H](CCC(N)=O)C(=O)N[C@@H](CC(=O)O)C(=O)N[C@@H](CS)C(=O)N[C@@H](CCC(=O)O)C(=O)N[C@@H](CC(=O)O)C(=O)NCC(=O)N[C@@H](CO)C(=O)N[C@@H](CC(=O)O)C(=O)N[C@@H](CCC(=O)O)C(=O)N[C@@H](CCC(N)=O)C(=O)N[C@@H](C)C(=O)N[C@@H](CS)C(=O)N1CCC[C@H]1C(=O)N[C@@H](Cc1ccc(O)cc1)C(=O)N[C@@H](CCCNC(=N)N)C(=O)N[C@H](C(=O)O)[C@@H](C)O (H-CPASYFKCRKHNHCYPMEWRCDGFQDCEDGSDEQACPYRT-OH) | ≤ 1 | ≤ 1
2 | CSCC[C@H](NC(=O)[C@@H]1CCCN1C(=O)[C@H](Cc1ccc(O)cc1)NC(=O)[C@H](CS)NC(=O)[C@H](Cc1cnc[nH]1)NC(=O)[C@H](CC(N)=O)NC(=O)[C@H](Cc1ccc(O)cc1)NC(=O)[C@H](CC(N)=O)NC(=O)[C@H](CCCNC(=N)N)NC(=O)[C@H](CS)NC(=O)[C@H](CCCCN)NC(=O)[C@H](Cc1ccccc1)NC(=O)[C@H](Cc1ccc(O)cc1)NC(=O)[C@H](CO)NC(=O)[C@H](C)NC(=O)[C@@H]1CCCN1C(=O)[C@@H](N)CS)C(=O)N[C@@H](CCC(=O)O)C(=O)N[C@@H](Cc1c[nH]c2ccccc12)C(=O)N[C@@H](CCCNC(=N)N)C(=O)N[C@@H](CS)C(=O)N[C@@H](CC(=O)O)C(=O)NCC(=O)N[C@@H](Cc1ccccc1)C(=O)N[C@@H](CCCNC(=N)N)C(=O)N[C@@H](CC(=O)O)C(=O)N[C@@H](CS)C(=O)N[C@@H](CCC(=O)O)C(=O)N[C@@H](CC(=O)O)C(=O)NCC(=O)N[C@@H](CO)C(=O)N[C@@H](CC(=O)O)C(=O)N[C@@H](CCC(=O)O)C(=O)N[C@@H](CCC(=O)O)C(=O)NCC(=O)N[C@@H](CS)C(=O)N1CCC[C@H]1C(=O)N[C@@H](Cc1ccc(O)cc1)C(=O)N[C@@H](CCCNC(=N)N)C(=O)N[C@H](C(=O)O)[C@@H](C)O (H-CPASYFKCRNYNHCYPMEWRCDGFRDCEDGSDEEGCPYRT-OH) | ≤ 1 | ≤ 1
3 | CSCC[C@H](NC(=O)[C@@H]1CCCN1C(=O)[C@H](Cc1ccc(O)cc1)NC(=O)[C@H](CS)NC(=O)[C@H](Cc1cnc[nH]1)NC(=O)[C@@H]1CCCN1C(=O)[C@H](Cc1cnc[nH]1)NC(=O)[C@H](CO)NC(=O)CNC(=O)[C@H](CS)NC(=O)[C@H](CCC(N)=O)NC(=O)[C@H](Cc1ccccc1)NC(=O)[C@H](Cc1ccc(O)cc1)NC(=O)[C@H](CO)NC(=O)[C@H](C)NC(=O)[C@@H]1CCCN1C(=O)[C@@H](N)CS)C(=O)N[C@@H](CCC(=O)O)C(=O)N[C@@H](Cc1c[nH]c2ccccc12)C(=O)N[C@@H](CCCNC(=N)N)C(=O)N[C@@H](CS)C(=O)N[C@@H](CC(=O)O)C(=O)NCC(=O)N[C@@H](Cc1ccccc1)C(=O)N[C@@H](CCC(N)=O)C(=O)N[C@@H](CC(=O)O)C(=O)N[C@@H](CS)C(=O)N[C@@H](CCC(=O)O)C(=O)N[C@@H](CC(=O)O)C(=O)NCC(=O)N[C@@H](CO)C(=O)N[C@@H](CC(=O)O)C(=O)N[C@@H](CCC(=O)O)C(=O)N[C@@H](CC(C)C)C(=O)NCC(=O)N[C@@H](CS)C(=O)N1CCC[C@H]1C(=O)N[C@@H](Cc1ccc(O)cc1)C(=O)N[C@@H](CCCNC(=N)N)C(=O)N[C@H](C(=O)O)[C@@H](C)O (H-CPASYFQCGSHPHCYPMEWRCDGFQDCEDGSDELGCPYRT-OH) | ≤ 1 | ≤ 1

Other lines, results leading:

Row | IC50 [1] [nM] | IC50 [2] [nM] | SMILES
4 | ≤ 1 | ≤ 1 | CC[C@H](C)[C@H](NC(=O)[C@H](CC(N)=O)NC(=O)CNC(=O)[C@H](CS)NC(=O)[C@H](CCC(N)=O)NC(=O)[C@H](Cc1ccccc1)NC(=O)[C@H](Cc1ccc(O)cc1)NC(=O)[C@H](CO)NC(=O)[C@H](C)NC(=O)[C@@H]1CCCN1C(=O)[C@@H](N)CS)C(=O)N[C@@H](CC(N)=O)C(=O)N[C@@H](Cc1cnc[nH]1)C(=O)N[C@@H](CS)C(=O)N[C@@H](Cc1ccc(O)cc1)C(=O)N1CCC[C@H]1C(=O)N[C@H](C(=O)N[C@@H](CCC(=O)O)C(=O)N[C@@H](Cc1c[nH]c2ccccc12)C(=O)N[C@@H](CCCNC(=N)N)C(=O)N[C@@H](CS)C(=O)N[C@@H](CC(=O)O)C(=O)NCC(=O)N[C@@H](Cc1ccccc1)C(=O)N[C@@H](CCC(N)=O)C(=O)N[C@@H](CC(=O)O)C(=O)N[C@@H](CS)C(=O)N[C@@H](CC(=O)O)C(=O)N[C@@H](CC(=O)O)C(=O)NCC(=O)N[C@@H](CO)C(=O)N[C@@H](CC(=O)O)C(=O)N[C@@H](CCC(=O)O)C(=O)N[C@@H](Cc1ccc(O)cc1)C(=O)N[C@H](C(=O)N[C@@H](CS)C(=O)N1CCC[C@H]1C(=O)N[C@@H](Cc1ccc(O)cc1)C(=O)N[C@@H](CCCNC(=N)N)C(=O)N[C@H](C(=O)O)[C@@H](C)O)C(C)C)C(C)C (H-CPASYFQCGNINHCYPVEWRCDGFQDCDDGSDEYVCPYRT-OH)
5 | ≤ 1 | ≤ 1 | CSCC[C@H](NC(=O)[C@@H]1CCCN1C(=O)[C@H](Cc1ccc(O)cc1)NC(=O)[C@H](CS)NC(=O)[C@H](Cc1cnc[nH]1)NC(=O)[C@H](CC(N)=O)NC(=O)[C@H](CC(C)C)NC(=O)[C@H](CC(N)=O)NC(=O)CNC(=O)[C@H](CS)NC(=O)[C@H](CCC(N)=O)NC(=O)[C@H](Cc1ccccc1)NC(=O)[C@H](Cc1ccc(O)cc1)NC(=O)[C@H](CO)NC(=O)[C@H](C)NC(=O)[C@@H]1CCCN1C(=O)[C@@H](N)CS)C(=O)N[C@@H](CCC(=O)O)C(=O)N[C@@H](Cc1c[nH]c2ccccc12)C(=O)N[C@@H](CCCNC(=N)N)C(=O)N[C@@H](CS)C(=O)N[C@@H](CC(=O)O)C(=O)NCC(=O)N[C@@H](Cc1ccccc1)C(=O)N[C@@H](CCC(N)=O)C(=O)N[C@@H](CC(=O)O)C(=O)N[C@@H](CS)C(=O)N[C@H](C(=O)N[C@@H](CC(=O)O)C(=O)NCC(=O)N[C@@H](CO)C(=O)N[C@@H](CC(=O)O)C(=O)N[C@@H](CCC(=O)O)C(=O)N[C@@H](CCCCN)C(=O)NCC(=O)N[C@@H](CS)C(=O)N1CCC[C@H]1C(=O)N[C@@H](Cc1ccc(O)cc1)C(=O)N[C@@H](CCCNC(=N)N)C(=O)N[C@H](C(=O)O)[C@@H](C)O)C(C)C (H-CPASYFQCGNLNHCYPMEWRCDGFQDCVDGSDEKGCPYRT-OH)
6 | ≤ 1 | ≤ 1 | CSCC[C@H](NC(=O)[C@@H]1CCCN1C(=O)[C@H](Cc1ccc(O)cc1)NC(=O)[C@H](CS)NC(=O)[C@H](Cc1cnc[nH]1)NC(=O)[C@H](CCCCN)NC(=O)[C@H](Cc1ccc(O)cc1)NC(=O)[C@H](CC(N)=O)NC(=O)CNC(=O)[C@H](CS)NC(=O)[C@H](CCC(N)=O)NC(=O)[C@H](Cc1ccccc1)NC(=O)[C@H](Cc1ccc(O)cc1)NC(=O)[C@H](CO)NC(=O)[C@H](C)NC(=O)[C@@H]1CCCN1C(=O)[C@@H](N)CS)C(=O)N[C@@H](CCC(=O)O)C(=O)N[C@@H](Cc1c[nH]c2ccccc12)C(=O)N[C@@H](Cc1cnc[nH]1)C(=O)N[C@@H](CS)C(=O)N[C@@H](CC(=O)O)C(=O)NCC(=O)N[C@@H](Cc1ccccc1)C(=O)N[C@@H](CCC(N)=O)C(=O)N[C@@H](CC(=O)O)C(=O)N[C@@H](CS)C(=O)N[C@H](C(=O)N[C@@H](CC(=O)O)C(=O)NCC(=O)N[C@@H](CO)C(=O)N[C@@H](CC(=O)O)C(=O)N[C@@H](CCC(=O)O)C(=O)N[C@@H](CCCCN)C(=O)N[C@@H](C)C(=O)N[C@@H](CS)C(=O)N1CCC[C@H]1C(=O)N[C@@H](Cc1ccc(O)cc1)C(=O)N[C@@H](CCCNC(=N)N)C(=O)N[C@H](C(=O)O)[C@@H](C)O)C(C)C (H-CPASYFQCGNYKHCYPMEWHCDGFQDCVDGSDEKACPYRT-OH)
7 | ≤ 1 | ≤ 1 | CSCC[C@H](NC(=O)[C@@H]1CCCN1C(=O)[C@H](Cc1ccc(O)cc1)NC(=O)[C@H](CS)NC(=O)[C@H](Cc1cnc[nH]1)NC(=O)[C@H](CC(N)=O)NC(=O)[C@H](Cc1ccc(O)cc1)NC(=O)[C@H](CC(N)=O)NC(=O)CNC(=O)[C@H](CS)NC(=O)[C@H](CCC(N)=O)NC(=O)[C@H](Cc1ccccc1)NC(=O)[C@H](Cc1ccc(O)cc1)NC(=O)[C@H](CO)NC(=O)[C@H](C)NC(=O)[C@@H]1CCCN1C(=O)[C@@H](N)CS)C(=O)N[C@@H](CCC(=O)O)C(=O)N[C@@H](Cc1c[nH]c2ccccc12)C(=O)N[C@@H](CCCNC(=N)N)C(=O)N[C@@H](CS)C(=O)N[C@@H](CC(=O)O)C(=O)NCC(=O)N[C@@H](Cc1ccccc1)C(=O)N[C@@H](CC(C)C)C(=O)N[C@@H](CC(=O)O)C(=O)N[C@@H](CS)C(=O)N[C@H](C(=O)N[C@@H](CC(=O)O)C(=O)NCC(=O)N[C@@H](CO)C(=O)N[C@@H](CC(=O)O)C(=O)N[C@@H](CCC(=O)O)C(=O)N[C@@H](CCCCN)C(=O)NCC(=O)N[C@@H](CS)C(=O)N1CCC[C@H]1C(=O)N[C@@H](Cc1ccc(O)cc1)C(=O)N[C@@H](CCCNC(=N)N)C(=O)N[C@H](C(=O)O)[C@@H](C)O)C(C)C (H-CPASYFQCGNYNHCYPMEWRCDGFLDCVDGSDEKGCPYRT-OH)
